One data set relates to old male Fischer rats. Briefly: Probe test after Morris water maze learning (time in quadrant where escape platform used to be). The data set is classed as in vivo, rat. Conditions: for time spent in the quadrant (¼) where the escape platform used to be, mean±standard deviation: old rats 21 months. Here is the method:
A Morris water maze learning test was conducted around the third month of the experiment (age of old rats: 21 months, age of young rats: 7 months). The Morris water maze test is a learning test based on spatial recognition in which water stained black with ink is filled (height of water level: 20 cm) into a water tank (diameter: 120 cm, height: 35 cm), a rat is placed on an escape platform of a size (diameter: 11.5 cm, height: 19 cm) that is just large enough for the rat to stand on (the escape platform is located beneath the surface of the water and cannot be seen by rats swimming in the water tank), the rat on which the learning test is to be performed is placed in the water tank at a predetermined location in the tank (starting point), and then forced to swim to the escape platform. This test is recognized to have a correlation with the hippocampus that governs memory, and is widely used in the US and Europe. As the test is repeated, the rats learn the location of the escape platform. The rats were allowed to learn using the method described below. Namely, after releasing a rat from the starting point of the Morris water maze test apparatus, if the rat was unable to reach the escape platform within 60 seconds, the rat was placed on the escape platform, thereby enabling it to learn the location of the unseen escape platform. This learning process was continued for 2 weeks no more than twice a day. The percentage of the amount of time required to swim from the starting point to the escape platform within an angular deviation range of ±15° to the total swimming time (Hit %, see FIG. 2) was used as an indicator of learning. […] In FIG. 3, each graduation on the scale of the horizontal axis represents four trials, or two days worth of testing.
Next, in order to determine the degree of learning acquisition, a probe test was conducted on the day after two weeks of the aforementioned learning, namely on day 15. If the escape platform is taken away after the rats have acquired learning, the rats swim around at the location where the escape platform used to be. The time during which the rats swim around at the former location of the escape platform based on the memory of where it used to be (evaluated by dividing the water tank into four quadrants and evaluated as the amount of time (seconds) spent in the quadrant where the escape platform used to be) can used to evaluate the degree of learning acquisition. The paths swam by the No. 1 and No. 2 rats of the YC group, OA group and OC group are shown (FIG. 4). Furthermore, as the rats were allowed to learn by changing the starting points for individual rats, the starting point (S) and quadrant where the escape platform used to be in FIG. 4 differ according to individual rats. […]

The subject of a further data set is hippocampus LTP. Conditions: 22-month-old rats, arachidonic acid diet 10 mg/rat/day for 8 weeks; versus 4-month-old young rats; cited from earlier work.

As for `CCCCC/C=C\C/C=C\C/C=C\C/C=C\CCCC(=O)OC(COC(=O)CCCCCCC)COC(=O)CCCCCCC` [8A8, 1,3-capryloyl-2-arachidonoyl-glycerol], in the data set on old male Fischer rats (Example 4, inferred from the probe test at the same ingested amount of arachidonic acid), the absorption result was “more easily absorbed than TGA40S”. Also, the “time spent in the quadrant (¼) where the escape platform used to be, mean±standard deviation” value in the data set with old male Fischer rats (Example 4, 40 mg arachidonic acid/rat/day, group OA 6 animals, group 8A8 8 animals) was 27.18 ± 5.10 s; in the data set on old male Fischer rats (Example 5, arachidonic acid per rat per day: 8A8 diet 40 g (so in the source), 8A8-containing oil or fat diet 13.2 mg), 27.00 ± 4.65 s. The “degree of learning acquisition” value in the data set with old male Fischer rats (Example 4, old rats, comparison between TGA40S and 8A8 and with young rats) is “tended to result in a higher degree of learning acquisition”.
On to `CCCCC/C=C\C/C=C\C/C=C\C/C=C\CCCC(=O)O` [arachidonic acid], for which, in the data set on hippocampus LTP, the “hippocampus LTP levels” value is given as “recovery to the level of young rats”.

The record behind these values is patent publication US10744146B2, “Composition having effects of preventing or ameliorating conditions or diseases caused by brain hypofunction” (SUNTORY HOLDINGS LIMITED, priority 2001, dated 2020).
